Test results reported in the supplement of paper PMC10307832.

Tests used:
Assay in all cases: relative viability (nuclei count vs DMSO), 5 days (fraction); higher = more cells survive
[1] = compound: CC1=C(C(=NN1)C)CC2=C(C3=C(S2)N(C(=O)N(C3=O)C)CC(C)C)C(=O)N4C[C@@H](CO4)O + Nc1nc2[nH]cc(CCc3ccc(C(=O)N[C@@H](CCC(=O)O)C(=O)O)cc3)c2c(=O)[nH]1 [Pemetrexed] (partner 0.2 µM)
Method in brief: (§1)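 Relative viability equals treated-well nuclei counts divided by vehicle-well nuclei counts. Counts came from 4× images of lung cancer cell lines grown in 1536-well plates for 5 days after pin-tool dosing on the day after seeding. Dosing used one drug alone or a fixed anchor-drug dose plus five library-drug doses (not always all listed) in √10 steps, and values are medians of duplicate plates.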

[2] = compound: Cc1ccccc1C(C(=O)NC1CCCCC1)N(C(=O)Cn1ccnc1C)c1cccc(F)c1 [IDH-C35] + COc1cccc2cc(-c3nc([C@H]4CC[C@H](C(=O)O)CC4)n4ncnc(N)c34)[nH]c12 [OSI-027] (partner 0.5 µM)
Method in brief: as §1

[3] = compound: Cc1ccccc1C(C(=O)NC1CCCCC1)N(C(=O)Cn1ccnc1C)c1cccc(F)c1 [IDH-C35] + Nc1ncn([C@H]2C[C@H](O)[C@@H](CO)O2)c(=O)n1 [Decitabine] (partner 2 µM)
Method in brief: as §1

[4] = compound: Cc1ccccc1C(C(=O)NC1CCCCC1)N(C(=O)Cn1ccnc1C)c1cccc(F)c1 [IDH-C35] + O=C(c1cc(Cc2n[nH]c(=O)c3ccccc23)ccc1F)N1CCN(C(=O)C2CC2)CC1 [Olaparib] (partner 8 µM)
Method in brief: as §1

Row | Cell Line | relative viability ([1]; first compound 0.0025 µM) | relative viability ([1]; first compound 0.007906 µM) | relative viability ([1]; first compound 0.025 µM) | relative viability ([1]; first compound 0.07906 µM) | relative viability ([1]; first compound 0.25 µM) | relative viability ([2]; first compound 0.08 µM) | relative viability ([2]; first compound 0.253 µM) | relative viability ([2]; first compound 0.8 µM) | relative viability ([2]; first compound 2.53 µM) | relative viability ([2]; first compound 8 µM) | relative viability ([3]; first compound 0.08 µM) | relative viability ([3]; first compound 0.253 µM) | relative viability ([3]; first compound 0.8 µM) | relative viability ([3]; first compound 2.53 µM) | relative viability ([3]; first compound 8 µM) | relative viability ([4]; first compound 0.08 µM) | relative viability ([4]; first compound 0.253 µM) | relative viability ([4]; first compound 0.8 µM) | relative viability ([4]; first compound 2.53 µM) | relative viability ([4]; first compound 8 µM)
1 | NCI-H1734 | 0.412 | 0.426 | 0.436 | 0.467 | 0.423 | 0.643 | 0.621 | 0.564 | 0.6 | 0.597 | 0.537 | 0.524 | 0.528 | 0.483 | 0.499 | 0.585 | 0.628 | 0.61 | 0.634 | 0.588
2 | LXF-289 | 0.88 | 0.811 | 0.751 | 0.922 | 0.975 | 0.79 | 0.761 | 0.757 | 0.783 | 0.709 | 0.405 | 0.401 | 0.38 | 0.371 | 0.415 | 1.1 | 0.996 | 1.03 | 1.01 | 1.08
3 | H3255 | 0.632 | 0.576 | 0.496 | 0.618 | 0.563 | 0.554 | 0.534 | 0.581 | 0.661 | 0.647 | 0.61 | 0.607 | 0.606 | 0.63 | 0.596 | 0.554 | 0.576 | 0.579 | 0.63 | 0.553
4 | 201T | 0.311 | 0.342 | 0.322 | 0.309 | 0.32 | 0.845 | 0.75 | 0.681 | 0.802 | 0.777 | 0.871 | 0.839 | 0.86 | 0.839 | 0.836 | 0.762 | 0.824 | 0.799 | 0.81 | 0.841
5 | NCI-H2126 | 0.766 | 0.737 | 0.63 | 0.6 | 0.739 | 0.767 | 0.731 | 0.68 | 0.651 | 0.677 | 0.573 | 0.602 | 0.592 | 0.526 | 0.559 | 0.896 | 0.928 | 0.92 | 0.912 | 0.917
